ChEMBL document CHEMBL3228010, “Potential antitumor agents. 29. Quantitative structure-activity relationships for the antileukemic bisquaternary ammonium heterocycles” (J Med Chem, 1979)

Assays:
L1210 [1] = experiment: Antitumor activity against mouse L1210 cells […] in ip dosed C3H X DBA2 F1 hybrid mouse on day 0 and dosed at LD10 level once daily on days 1 to 5 assessed as increase in life span relative to control; type: functional
Bos taurus = species: Bos taurus; experiment: Displacement of ethidium from calf thymus DNA by fluorimetric method
Mus musculus = experiment: Toxicity in ip dosed C3H X DBA2 F1 hybrid mouse […] with mouse L1210 cells on day 0 and dosed once daily on days 1 to 5 measured after 50 days; type: organism-based; settings: in vivo, 1200 h
L1210 [2] = experiment: Antitumor activity against mouse L1210 cells […] in ip dosed C3H X DBA2 F1 hybrid mouse on day 0 and dosed once daily on days 1 to 5 assessed as increase in life span relative to control; type: functional
[3] = Lipophilic-hydrophilic balance, Rm of the compound by partition chromatography; type: physicochemical
[4] = Displacement of ethidium from poly[d(A-T)]-poly[d(A-T)] DNA by fluorimetric method
[5] = Displacement of ethidium from poly[d(G-C)]-poly[d(G-C)] DNA (unknown origin) by fluorimetric method

| Structure (SMILES) | log(ILSmax) (L1210 [1]) | C50 (Bos taurus) [µM] | LD10 (Mus musculus) [mg/kg] | D40 (L1210 [2]) [mg/kg] | Rm [3] | C50 [4] [µM] | C50 [5] [µM] |
| --- | --- | --- | --- | --- | --- | --- | --- |
| C[n+]1ccc(Nc2ccc(NC(=O)/C=C/c3ccc(Nc4cc[n+](C)c5ccccc45)cc3)cc2)cc1.[Br-].[Br-] | 2.22 | 0.38 | 22 | 1.3 | 0.28 | 0.15 | 0.71 |
| C[n+]1cccc(NC(=O)c2ccc(NC(=O)c3ccc(Nc4c5ccccc5[n+](C)c5ccc(N)cc45)cc3)cc2)c1.[Cl-].[Cl-] | 2.36 | 0.17 | 55 | 9 | 0.44 | 0.09 | 0.25 |
| CCC[n+]1ccc(Nc2ccc(NC(=O)c3ccc(Nc4cc[n+](CCC)c5ccc(N)cc45)cc3)cc2)cc1.[Br-].[Br-] | 2.07 | 0.68 | 10 | 1.8 | 0.46 | 0.1 | 1.1 |
| CC(=O)Nc1ccc2c(Nc3ccc(NC(=O)c4ccc(Nc5cc[n+](C)cc5)cc4)cc3)cc[n+](C)c2c1.Cc1ccc(S(=O)(=O)[O-])cc1.Cc1ccc(S(=O)(=O)[O-])cc1 | 2.26 | 0.34 | 97 | 10 | -0.1 | 0.13 | 0.53 |
| C[n+]1cccc(NC(=O)c2ccc(NC(=O)c3ccc(C(=O)Nc4ccc(C(=O)Nc5ccc[n+](C)c5)c(N)c4)cc3)cc2N)c1.Cc1ccc(S(=O)(=O)[O-])cc1.Cc1ccc(S(=O)(=O)[O-])cc1 | 2.35 | 0.26 | 44 | 2.4 | -0.75 | 0.12 | 0.39 |
| CCCC[n+]1cccc(C(=O)Nc2ccc(NC(=O)c3ccc(C(=O)Nc4ccc5c(ccc[n+]5CCCC)c4)cc3)cc2)c1.Cc1ccc(S(=O)(=O)[O-])cc1.Cc1ccc(S(=O)(=O)[O-])cc1 | 1.72 | 2.5 | 19 | 12 | 0.65 | 2.1 | 4.2 |
| C/C(=N\NC(=N)N)c1ccc(NC(=O)c2ccc(Nc3cc[n+](C)c4cc([N+](=O)[O-])ccc34)cc2)cc1.Cl.[Cl-] | 2.18 | 0.2 | 56 | 5.9 | -0.24 | 0.13 | 0.74 |
| C[n+]1cccc(-c2ccc(NC(=O)/C=C/c3ccc(C(=O)Nc4ccc(-c5ccc(-c6ccc(-c7ccc[n+](C)c7)cc6)cc5)cc4)cc3)cc2)c1.Cc1ccc(S(=O)(=O)[O-])cc1.Cc1ccc(S(=O)(=O)[O-])cc1 | 2.16 | 0.3 | 85 | 26.9 | -0.75 | 0.13 | 0.46 |
| C[n+]1ccc(Nc2ccc(NC(=O)/C=C/c3ccc(C(=O)Nc4ccc(Nc5cc[n+](C)cc5)cc4)cc3)cc2)cc1.Cc1ccc(S(=O)(=O)[O-])cc1.Cc1ccc(S(=O)(=O)[O-])cc1 | 2.28 | 0.43 | 11 | 4.2 | -0.34 | 0.14 | 0.51 |
| C[n+]1ccc(Nc2ccc(NC(=O)c3ccc(-c4ccc(Nc5cc[n+](C)cc5)cc4)cc3)cc2)cc1.[I-].[I-] | 2.28 | 2.04 | 2.6 | 0.6 | 0.06 | 0.37 | 3.01 |
| C[n+]1ccc(Nc2ccc(NC(=O)c3ccc(/C=C/C4=NCCCN4)cc3)cc2)c2cc(N)ccc21.Cc1ccc(S(=O)(=O)O)cc1.Cc1ccc(S(=O)(=O)[O-])cc1 | 1.9 | 0.65 | 7 | 2 | 0.17 | 0.35 | 0.87 |
| C/C(=N\NC(=N)N)c1ccc(NC(=O)c2ccc(C(=O)Nc3ccc(C(=O)Nc4ccc[n+](C)c4)cc3)cc2)cc1.Cc1ccc(S(=O)(=O)O)cc1.Cc1ccc(S(=O)(=O)[O-])cc1 | 1.93 | 0.46 | 20 | 8.7 | -0.53 | 0.3 | 0.52 |
| Cc1cc(Nc2ccc(NC(=O)c3ccc(C(=O)Nc4ccc(C(=O)Nc5ccc[n+](C)c5)cc4)cc3)cc2)nc(N)n1.I.[I-] | 2 | 0.39 | 19 | 10 | -0.3 | 0.27 | 0.49 |
| C[n+]1cccc(NC(=O)c2ccc(NC(=O)c3ccc(C(=O)Nc4ccc(N/N=N/c5ccc(C(=N)N)cc5)cc4)cc3)cc2)c1.Cc1ccc(S(=O)(=O)O)cc1.Cc1ccc(S(=O)(=O)[O-])cc1 | 2.1 | 0.48 | 35 | 6 | -0.77 | 0.22 | 0.64 |
| Cc1cc(Nc2ccc(NC(=O)c3ccc(C(=O)Nc4ccc(Nc5cc(C)[n+](C)c(N)n5)cc4)cc3)cc2)nc(N)[n+]1C.Cc1ccc(S(=O)(=O)[O-])cc1.Cc1ccc(S(=O)(=O)[O-])cc1 | 2.12 | 0.5 | 250 | 75 | -0.71 | 0.4 | 0.8 |
| C[n+]1ccc(Nc2ccc(C(=O)Nc3ccc(Nc4cc[n+](C)c5ccccc45)cc3)cc2)cc1.Cc1ccc(S(=O)(=O)[O-])cc1.Cc1ccc(S(=O)(=O)[O-])cc1 | 2.29 | 1.6 | 7.5 | 2.2 | 0.27 | 0.21 | 3 |
| C[n+]1cccc(NC(=O)c2ccc(NC(=O)c3ccc(C(=O)Nc4ccc(C(=O)Nc5ccc[n+](C)c5)cc4Cl)cc3)c(Cl)c2)c1.Cc1ccc(S(=O)(=O)[O-])cc1.Cc1ccc(S(=O)(=O)[O-])cc1 | 1.6 | 1.3 | 50 | 50 | 0.36 | 1.3 | 1.5 |
| C[n+]1ccc(Nc2ccc(NC(=O)c3ccc(Nc4cc[n+](C)c5cc([N+](=O)[O-])ccc45)cc3)cc2)cc1.Cc1ccc(S(=O)(=O)[O-])cc1.Cc1ccc(S(=O)(=O)[O-])cc1 | 2.02 | 0.69 | 27 | 3 | 0.15 | 0.2 | 1.3 |
| C[n+]1ccc(Nc2ccc(NC(=O)c3ccc(Nc4cc[n+](C)c5cc(Cl)ccc45)cc3)cc2)cc1.[Br-].[Br-] | 1.97 | 1 | 39 | 12 | 0.31 | 0.21 | 2.27 |
| CCC[n+]1ccc(Nc2ccc(NC(=O)c3ccc(Nc4cc[n+](CCC)c5ccccc45)cc3)cc2)cc1.[Br-].[Br-] | 1.81 | 2.3 | 15 | 8.8 | 0.74 | 0.2 | 3 |
| Cc1c(C(=O)Nc2ccc(C(=O)Nc3ccc[n+](C)c3)cc2)ccc(C(=O)Nc2ccc(C(=O)Nc3ccc[n+](C)c3)cc2)c1C.Cc1ccc(S(=O)(=O)[O-])cc1.Cc1ccc(S(=O)(=O)[O-])cc1 | 1.65 | 6.9 | 19 | 14.7 | 0.47 | 5.4 | 12 |
| C[n+]1ccc(Nc2ccc(C(=O)Nc3ccc(Nc4cc[n+](C)c5cc(N)ccc45)cc3)cc2)cc1.Cc1ccc(S(=O)(=O)[O-])cc1.Cc1ccc(S(=O)(=O)[O-])cc1 | 2.34 | 0.43 | 25 | 1.5 | -0.04 | 0.12 | 1.04 |
| C[n+]1ccc(Nc2ccc(NC(=O)/C=C/c3ccc(Nc4cc[n+](C)c5ccc(N)cc45)cc3)cc2)cc1.Cc1ccc(S(=O)(=O)[O-])cc1.Cc1ccc(S(=O)(=O)[O-])cc1 | 2.24 | 0.46 | 40 | 1.6 | 0.03 | 0.09 | 0.41 |
| C[n+]1cccc2ccc(NC(=O)c3ccc(NC(=O)c4ccc(C(=O)Nc5ccc6ccc[n+](C)c6c5)cc4)cc3)cc21.Cc1ccc(S(=O)(=O)[O-])cc1.Cc1ccc(S(=O)(=O)[O-])cc1 | 1.85 | 0.16 | 34 | 15 | -0.76 | 0.16 | 0.25 |
| C[n+]1ccc(Nc2ccc(NC(=O)c3ccc(Nc4cc[n+](C)c5ccc(Cl)cc45)cc3)cc2)cc1.Cc1ccc(S(=O)(=O)[O-])cc1.Cc1ccc(S(=O)(=O)[O-])cc1 | 1.81 | 0.79 | 40 | 14 | 0.57 | 0.24 | 1.76 |
| CC[n+]1cccc(NC(=O)c2ccc(NC(=O)c3ccc(C(=O)Nc4ccc5c(ccc[n+]5CC)c4)cc3)cc2)c1.Cc1ccc(S(=O)(=O)[O-])cc1.Cc1ccc(S(=O)(=O)[O-])cc1 | 2.2 | 0.74 | 9 | 2.3 | 0.09 | 0.62 | 1.48 |
